System: cough
Test: Quantitative cough assessment (LifeShirt), mean cough frequency over 24 hours
Format: in vivo, human
Conditions: FIG. 2; initial improvement, temporary increase, then overall improvement
Experimental: FIG. 2 provides the effect on mean cough frequency over 24 hours by the administration of 3-[5-(2-fluoro-phenyl)-[1,2,4]oxadiazol-3-yl]-benzoic acid to a subject.
The VivoMetrics, Inc. LifeShirt® incorporates motion-sensing transducers, electrodes, a throat microphone, calibration bag, and a 3-axis accelerometer into a lightweight, washable vest that is available for patients≧5 years of age (see LifeShirt® Monitoring System QuickStart Guide, incorporated by reference herein in its entirety). Using integrated input from the motion sensors and microphone, the frequency and intensity of cough can be measured. […]
The device was used to obtain the data set forth in FIG. 2 and will be used to offer substantial supplementary data regarding the clinical benefits of 3-[5-(2-fluoro-phenyl)-[1,2,4]oxadiazol-3-yl]-benzoic acid during Phase 3 testing in CF. […] Without being limited by theory, based on the hypothesis that 3-[5-(2-fluoro-phenyl)-[1,2,4]oxadiazol-3-yl]-benzoic acid-mediated induction of CFTR function would reduce airway obstruction and inflammation, a decrease in cough frequency could serve as a symptomatic integration of these pharmacological effects and might offer a more accurate and quantitative assessment than verbal patient reporting.

O=C(O)c1cccc(-c2noc(-c3ccccc3F)n2)c1 [3-[5-(2-fluoro-phenyl)-[1,2,4]oxadiazol-3-yl]-benzoic acid] was tested, and the “Mean cough frequency over 24 hours” value was “overall improvement in mean cough frequency”.

Reference: patent US9226919B2, “Methods for dosing an orally active 1,2,4-oxadiazole” (PTC Therapeutics, Inc., priority 2006, dated 2016)
